{
  "source": "patent US20060211650A1",
  "about": "“Reducing carbohydrate derivatives of adamantane amines, and synthesis and methods of use thereof” (Forest Laboratories, Inc., priority 2004, published 2006)",
  "test_in_all_cases": "Disk assay, zone of inhibition",
  "assay_type_in_all_cases": "cell-based",
  "key": {"[1]": {"test_system": "Pseudomonas aeruginosa, ATCC #9027", "conditions": "1% solution in saline on disk, Plates 1-3, \"No Zone\" = no antibacterial activity observed", "procedure": "(§1) The antibiotic activity of a 1% memantine-lactose adduct solution in saline was assayed using a disk assay against three USP bacteria cultures: Staphylococcus aureus, Pseudomonas aeruginosa and Escherichia coli. A negative control, 0.9% saline disk, and a positive control, 1% gentamicin solution in saline, were included. Antibacterial activity was evaluated by measuring (in mm) the size of any clear zone of no growth (i.e., Zone of Inhibition) around each sample. A “No Zone” is reported when no antibacterial activity is observed. […] These experiments may be predictive of biological effects in humans or other mammals and/or may serve as models for use of the present invention in humans or other mammals for the treatment of infections caused by Gram positive or Gram negative bacteria. See, e.g., Kustimur et al., Chinese Medical Journal, 116(4):633-636 (2003)."}, "[2]": {"test_system": "Staphylococcus aureus, ATCC #6538", "procedure": "as §1"}, "[3]": {"test_system": "Escherichia coli, ATCC #8739", "conditions": "1% solution in saline on disk, Plates 1-3, \"No Zone\" = no antibacterial activity observed", "procedure": "as §1"}},
  "note": "“And” between values parts separate entries of the source, which are not always exact repeats. Identical values can stand only once.",
  "data": [
    {"molecule": "CC12CC3CC(C)(C1)CC(NCC(=O)[C@@H](O)C(O[C@@H]1O[C@H](CO)[C@@H](O)[C@H](O)[C@H]1O)[C@H](O)CO)(C3)C2", "note": "(stereo partly drawn) [Memantine-lactose adduct]", "values": [
      {"measurement": "Zone of Inhibition", "setting": "[1]", "value": "No Zone"},
      {"measurement": "antibacterial activity (result in words)", "setting": "[2]; Staphylococcus aureus, 1% solution in saline, disk assay", "value": "found to have antibacterial activity"},
      {"measurement": "Zone of Inhibition", "setting": "[3]", "value": "No Zone"}
    ]},
    {"molecule": "gentamicin", "values": [
      {"measurement": "Zone of Inhibition", "setting": "[1]", "value": "11.2 mm and 10.9 mm and 9.9 mm"},
      {"measurement": "Zone of Inhibition", "setting": "[2]; Staphylococcus aureus ATCC #6538, 1% solution in saline on disk, Plates 1-3, \"No Zone\" = no antibacterial activity observed", "value": "19.3 mm and 19.1 mm and 15.8 mm"},
      {"measurement": "Zone of Inhibition", "setting": "[3]", "value": "15.5 mm and 16.8 mm"}
    ]}
  ]
}
